# Measurements published in PubChem BioAssay (NCI).
#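 Five concentrations, 48 hours, 96-well plates. The concentration for 50% growth inhibition is given as GI50. TGI denotes the concentration required for complete inhibition of growth.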
# Experiments:
# Assay in all cases: NCI anticancer screen, dose series, 48 h
# A498 renal = test system: A498 renal
# ACHN renal = test system: ACHN renal
# HT29 colon = test system: HT29 colon
# MOLT-4 leukemia = test system: MOLT-4 leukemia
# OVCAR-3 ovarian = test system: OVCAR-3 ovarian
# OVCAR-5 ovarian = test system: OVCAR-5 ovarian
# RXF 393 renal = test system: RXF 393 renal
# SN12C renal = test system: SN12C renal
# SR leukemia = test system: SR leukemia
# TK-10 renal = test system: TK-10 renal
# BT-549 breast = test system: BT-549 breast
SMILES,TGI (A498 renal) [µM],TGI (ACHN renal) [µM],TGI (HT29 colon) [µM],TGI (MOLT-4 leukemia) [µM],TGI (OVCAR-3 ovarian) [µM],TGI (OVCAR-5 ovarian) [µM],TGI (RXF 393 renal) [µM],TGI (SN12C renal) [µM],TGI (SR leukemia) [µM],TGI (TK-10 renal) [µM],TGI (BT-549 breast) [µM],GI50 (MOLT-4 leukemia) [µM],GI50 (OVCAR-3 ovarian) [µM],GI50 (OVCAR-5 ovarian) [µM],GI50 (RXF 393 renal) [µM],GI50 (SN12C renal) [µM],GI50 (TK-10 renal) [µM],GI50 (SR leukemia) [µM]
O=C1c2ccccc2C2C1N2C(=O)C(F)(F)F (centres undefined),> 100,> 100,> 100,> 100,> 100,> 100,> 100,> 100,> 100,> 100,–,–,–,–,–,–,–,–
COc1cc([C@@H]2c3cc4c(cc3[C@@H](Nc3ccc([N+](=O)[O-])cc3C(=O)c3ccccc3)[C@H]3COC(=O)[C@H]23)OCO4)cc(OC)c1OC,> 100,> 100,> 100,> 100,> 100,> 100,> 100,> 100,> 100,> 100,–,–,–,–,–,–,–,–
CCOC(=O)C(NC(C)=O)(Nc1ccc(F)cc1)C(F)(F)F (centres undefined),–,> 100,> 100,> 100,> 100,> 100,> 100,> 100,> 100,> 100,> 100,–,–,–,–,–,–,–
FC(F)(F)c1cc(Cl)cnc1N/N=C(/c1ccccc1)c1ccccn1,–,11.8,20.5,8.82,12.7,33.4,40.9,> 100,–,–,36.4,–,–,–,–,–,–,–
O=c1[nH][nH]c(=O)n1Cc1ccccc1Cn1c(=O)[nH][nH]c1=O,> 100,> 100,> 100,> 100,> 100,> 100,> 100,> 100,–,> 100,> 100,–,–,–,–,–,–,–
O=C(O)CN(CC(=O)O)C1CCCCC1N(CC(=O)O)CC(=O)NCCN=C=S (centres undefined),> 100,> 100,> 100,> 100,> 100,> 100,> 100,> 100,–,> 100,> 100,–,–,–,–,–,–,–
Cc1cc(=O)[nH]c(NN2C(Cl)C(=O)C2c2ccccc2O)n1 (centres undefined),> 100,> 100,> 100,> 100,23.3,> 100,> 100,> 64,> 100,> 100,–,–,–,–,–,–,–,–
CC1C=C(CCCCCCCCCCCC[C@@H](O)[C@@H]2CC[C@@H]([C@@H]3CC[C@@H](C(O)CCCCCCCCCCCCC4=C[C@H](C)OC4=O)O3)O2)C(=O)O1 (some centres undefined),> 100,> 100,> 100,> 100,> 100,> 100,> 100,> 100,> 55,> 100,–,–,–,–,–,–,–,–
Cc1ccsc1/C=N/Nc1ncccn1,> 100,> 100,> 100,> 100,> 100,> 100,> 100,> 100,–,> 100,> 100,–,–,–,–,–,–,–
[N-]=[N+]=Nc1cc(=O)oc2ccccc12,–,> 100,> 100,> 100,–,> 100,> 100,> 100,> 100,> 100,–,–,–,–,–,–,–,–
Cc1ccc(SCC(CSCCO)OCn2cnc3c2NC(N)=NC32OCCO2)cc1 (centres undefined),> 100,> 100,> 100,> 100,> 100,> 100,> 100,–,> 100,> 100,–,–,–,–,–,–,–,–
N#CN=C(N(Cc1ccccc1)Cc1ccccc1)N(Cc1ccccc1)Cc1ccccc1,> 100,> 100,> 100,> 100,31.7,> 100,–,> 100,–,–,–,–,–,–,–,–,–,–
CCCNC1=C2CC(C)CC(OC)[C@@H](O)[C@H](C)/C=C(\C)C(OC(N)=O)C(OC)/C=C\C=C(/C)C(=O)NC(=CC1=O)C2=O (some centres undefined),9.55,91.4,10.9,13.5,28.8,–,48.7,28.7,–,> 100,42.1,0.492,0.613,13.3,13.8,0.235,11.6,–
CC(N)Cc1ccc(C(=O)Cl)cc1 (centres undefined),> 100,> 100,> 100,> 100,> 100,–,> 100,> 100,–,> 100,–,–,–,–,–,–,–,–
CCC1(O)CC2CC(=O)OC2C1O (centres undefined),> 100,> 100,> 100,> 100,> 100,> 100,> 100,–,> 100,> 100,–,–,–,–,–,–,–,–
O=C([O-])CC(=O)[O-].O=C([O-])CC(=O)[O-].[K+].[Pd+2],–,–,–,–,> 100,> 100,> 100,> 100,> 100,> 100,–,–,> 100,> 100,> 100,> 100,> 100,> 100
CCN(CC)CCC(=O)Nc1ccc2c(c1)C(=O)c1ccc(NC(=O)CCN(CC)CC)cc1C2=O,17.8,16.3,12.5,12.2,–,25.1,9.27,13.4,14.5,18.9,–,–,–,–,–,–,–,–
COc1ccc2c(=O)c(O)c(-c3ccc(OC)c(OC)c3)oc2c1,> 100,> 100,> 100,> 100,11.9,> 100,–,–,> 100,45.8,–,–,–,–,–,–,–,–
Clc1ccc(/C=C/c2nc3ccccc3s2)cc1Cl,–,> 100,> 100,> 100,> 100,> 100,–,> 100,> 100,> 100,> 100,–,–,–,–,–,–,–
CCOC(=O)N1CCC2(CC1)C[C@](C)(C(C)=O)C(C)O2 (some centres undefined),> 100,> 100,> 100,> 100,> 100,> 100,–,–,> 100,> 100,–,–,–,–,–,–,–,–
COc1nc(N)c(C(=O)CCl)c(=O)n1C,32.4,48.5,32.3,44.7,–,37.2,20.6,45.2,42.4,29,–,–,–,–,–,–,–,–
